Test results taken from patent US4481201A, “Pharmaceutical composition containing N,N^3 -di-(β-bromopropionyl)-N^1,N^2 -dispirotripiperazinium dichloride” (Vsesojuzny Nauchno-Issledovatelsky Khimoko-Farmasevtichesky …, priority 1981, dated 1984).

Columns and labels:
Ienssen's sarcoma = assay: Growth of graft Ienssen sarcoma in rats; assay type: in vivo
From the text: (§1) The antitumor activity has been studied on white rats weighing 110-130 g, as well as on white noninbred and inbred mice weighing 17-21 g with ligated tumors. The treatment is started 5-7 days transplanting of solid tumors and the following day after the transplanting of leukotic strains. Use has been made of the following transplantable strains of the tumors:
(§2) (1) rats: Ienssen's sarcoma, sarcoma 45, sarcoma M-1, sarcoma 536;
(§3) The compounds of the general formula (I), wherein X represents Cl^- (compound 1), Br^- (compound 2) are well-soluble in an isotonic solution of sodium chloride and they are administered intraperitoneally. The doses of the compounds have been calculated in mg per kg of the animal bodyweight.

sarcoma 45 = assay: Growth of graft sarcoma 45 in rats; assay type: in vivo; settings: for Change in the animal body weight, test / It, % tumor growth suppression index: rats
From the text: as §1, §2, §3

sarcoma 536 = assay: Growth of graft sarcoma 536 in rats; assay type: in vivo
From the text: as §1, §2, §3

sarcoma M-1 = assay: Growth of graft sarcoma M-1 in rats; assay type: in vivo
From the text: as §1, §2, §3

sarcoma 180 = assay: Growth of graft sarcoma 180 in mice; assay type: in vivo, noninbred white mice; settings: mice, at MTD (dose not given)
From the text: as §1
(§4) (2) noninbred white mice: sarcoma 180, sarcoma AK, sarcoma 37, carcinoma HK;
as §3

sarcoma 37 = assay: Growth of graft sarcoma 37 in mice; assay type: in vivo, noninbred white mice; settings: mice, at MTD (dose not given)
From the text: as §1, §4, §3

sarcoma AK = assay: Growth of graft sarcoma AK in mice; assay type: in vivo, noninbred white mice; settings: mice, at MTD (dose not given)
From the text: as §1, §4, §3

leukemia La = assay: Life span of mice with transplantable leukemia La; assay type: in vivo, inbred mice; settings: leukemia La, MTD
From the text: as §1
(§5) (3) inbred mice: leukemia La, leukemia L1210 and P-388.
(§6) The activity of compounds relative to leukosis has been assessed by the life span (It) of treated animals as compared to the control ones. It --index of suppression of leukosis development is calculated by the formula: [formula]

[1] = Toxicity on single and repeated administration to mice; assay type: in vivo
Description: (3) acute toxicity of the compounds upon a single and repeated administration to white noninbred mice places into standard cages with 8 animals in each.
In the investigation of toxic properties of the compounds according to the present invention there has been determined the absolutely lethal dose (DL95), average lethal dose (DL50) and MTD. For compounds 1 and 2 there were determined DL95 and DL50 on healthy white mice with the body mass of 18-21 g at a single and repeated (once a day, daily for 7 days) intraperitoneal administration.

Solubility = assay type: physicochemical
Description: as §3
To a mixture of 3 g of N^1,N^2 -dispirotripiperazinium dichloride, 1.5 g of lithium hydroxide, 1 ml of water and 10 ml of ether a solution of 5.2 g of β-bromopropionic acid chlorid in 5 ml of ether is added under vigorous stirring and at a temperature of 5° to 10° C. The reaction mass is stirred for 2 hours at the temperature of 15° C. The residue is filtered off, dissolved in 10 ml of water; the resulting aqueous solution is poured in 100 ml of methanol.

transplantable leukemia = assay: Activity relative to leukoses of inbred mice (overall); assay type: in vivo
From the text: (2) activity of the compounds relative to leukoses of inbred mice;
as §1, §5, §6

[2] = rats, 21 mg/kg intraperitoneally, 44 injections
[3] = rats, 39 mg/kg intraperitoneally, 5 injections
[4] = rats, 86 mg/kg intraperitoneally, 4 injections
[5] = rats, 88 mg/kg intraperitoneally, 5 injections
[6] = rats, 2,1 mg/kg intraperitoneally, 7 injections
[7] = rats, 4,2 mg/kg intraperitoneally, 7 injections
[8] = 44 mg/kg intraperitoneally, 7 injections
[9] = 83 mg/kg intraperitoneally, 7 injections
[10] = rats, 81 mg/kg intraperitoneally, 6 injections
[11] = mice, single intraperitoneal administration

## O=C(CCBr)N1CC[N+]2(CC1)CC[N+]1(CCN(C(=O)CCBr)CC1)CC2 [Compound 2]
Ienssen's sarcoma; Ienssen sarcoma
  Ch/T chemotherapeutical index (ratio of MTD to minimum effective dose): 50
Ienssen's sarcoma; rats with Ienssen sarcoma, repeated intraperitoneal administration
  Maximum tolerable dose (MTD): 149 mg/kg
Ienssen's sarcoma; rats, 8 mg/kg intraperitoneally, 7 injections
  Change in the animal body weight, test: +21 g
Ienssen's sarcoma; [2]
  Change in the animal body weight, test: +34 g
  It, % tumor growth suppression index: +90%
Ienssen's sarcoma; [3]
  Change in the animal body weight, test: +14 g
  It, % tumor growth suppression index: +99%
Ienssen's sarcoma; [4]
  Change in the animal body weight, test: +1 g
  It, % tumor growth suppression index: +99%
Ienssen's sarcoma; [5]
  Change in the animal body weight, test: +1 g
  It, % tumor growth suppression index: +99%
Ienssen's sarcoma; rats, 149 mg/kg intraperitoneally (MTD), 5 injections
  Change in the animal body weight, test: -30 g
Ienssen's sarcoma; [6]
  Change in the animal body weight, test: +5 g
  It, % tumor growth suppression index: +46%
Ienssen's sarcoma; [7]
  Change in the animal body weight, test: +6 g
  It, % tumor growth suppression index: +35%
Sarcoma 45; rats with sarcoma 45, repeated intraperitoneal administration
  Maximum tolerable dose (MTD): 95 mg/kg
Sarcoma 45; 20 mg/kg intraperitoneally, 7 injections
  Change in the animal body weight, test: -12 g
Sarcoma 45; 20 mg/kg intraperitoneally, 7 injections, 20 mg/kg
  It, % tumor growth suppression index: +66%
Sarcoma 45; [8]
  Change in the animal body weight, test: +4 g
  It, % tumor growth suppression index: +96%
Sarcoma 45; [9]
  Change in the animal body weight, test: +6 g
  It, % tumor growth suppression index: +96%
Sarcoma 45; 95 mg/kg intraperitoneally (MTD), 6 injections
  Change in the animal body weight, test: -6 g
Sarcoma 536; rats with sarcoma 536, repeated intraperitoneal administration
  Maximum tolerable dose (MTD): 133 mg/kg
Sarcoma 536; [10]
  Change in the animal body weight, test: -15 g
  It, % tumor growth suppression index: +52%
Sarcoma 536; rats, 133 mg/kg intraperitoneally (MTD), 5 injections
  Change in the animal body weight, test: -14 g
Sarcoma M-1; rats with sarcoma M-1, repeated intraperitoneal administration
  Maximum tolerable dose (MTD): 95 mg/kg
Sarcoma M-1; rats, 95 mg/kg intraperitoneally (MTD), 6 injections
  Change in the animal body weight, test: +8 g
Sarcoma 180
  suppression of sarcoma 180: 52%
Sarcoma 37
  suppression of sarcoma 37: 60%
Sarcoma AK
  suppression of sarcoma AK: 81%
Leukemia La
  extension of life span of treated mice as compared to the control: 2 times
[1]; mice, repeated intraperitoneal administration (once a day, daily for 7 days)
  DL50 (average lethal dose): 150 mg/kg
[1]; [11]
  DL50 (average lethal dose): 1,150 mg/kg
  DL95 (absolutely lethal dose): 1,250 mg/kg
[1]; repeated intraperitoneal administration
  MTD: 125 mg/kg
Solubility
  solubility in an isotonic solution of sodium chloride: well-soluble
Transplantable leukemia
  effect on transplantable leukemia in mice: clearly pronounced antileukotic effect
